The values that follow come from patent US20180332852A1, “Increased Almond Yields with Brassinosteroid Application” (Repar Corporation, priority 2017, published 2018).

Data set [1] deals with Branches of Carmel cultivars (almond). Nature of the data set: Experiment 3: pollen germination, pollen tube length and fruit set after treatment during flowering. The data set is classed as in vivo, Prunus dulcis. Conditions: percent of flowers containing germinated pollen, versus control. The protocol: Branches of Carmel cultivars were selected from a mature almond orchard further comprising Solando and Non […] cultivars. During flowering, the selected branches received either a brassinosteroid treatment (BL, EBL, or HBR) (FIGS. 1, 2, and 3) or a gibberellic acid (FIG. 4) treatment. Four hours after treatment the percent of flowers which contained germinated pollen was determined. Twenty-four hours after treatment the length of each pollen tube was measured. Finally, fruit set was tabulated 50 days after fertilization. Results across the brassinosteroids were similar. […] Fruit set at 50 days after flowering was greater in the BR group than either GA3 or control.

For the next data set, the system named is non Pareil almond tree. Nature of the data set: Experiment 2: effects of HBR on nut size and fruit set in almond trees. In kind it is in vivo, Prunus dulcis. The conditions noted are these: 1 ppm HBR sprayed two weeks after full bloom; final fruit set at harvest. The source says: The effects of HBR on nut size and fruit set were studied in a population of 20 year old almond trees in Paine, Region 6 of Chile. The experimental design used a randomized block pattern with 10 replications of each experimental condition. Each experimental unit was a shoot of a non […] almond tree which was pollinated by bees in Solano and Carmel cultivars. Sufficient bee colonies were used for pollination of the orchard, including trees not receiving an experimental treatment. Flowers at full bloom were tallied and two weeks later the test branches were sprayed with either a control containing just water, a solution containing HBR at a rate of 1 ppm, a 10 ppm solution of HBR, or a solution of 10 ppm HBR and 10 ppm CPPU. Final fruit set on each test branch was taken at harvest. The percentage of fruit set was calculated by dividing the number of fruit per branch by the number of flowers counted before treatment and multiplying the result by 100.

The conditions of data set [2]: diluted solution; pH should be no greater than 7.0, optimally between 4.0 and 5.0; cited from earlier work.

For `CC[C@@H](C(C)C)C(O)C(O)[C@@H](C)[C@H]1CC[C@H]2[C@@H]3COC(=O)[C@H]4C[C@H](O)[C@H](O)C[C@]4(C)[C@H]3CC[C@]12C` (stereo in doubt) [HBR, homobrassinolide], the “pollen germination after four hours” value in data set [1] was “most effective treatment”. The “increase of fruit set over control” value in the data set on non Pareil almond tree is 21.1%. For the same compound, in data set [2], the “stability at alkaline pH levels” value is listed as “not stable”.
